Results from patent publication US4414219A, “Antidepressant (α-phenyl-2-tolyl)azacycloalkanols and derivatives thereof” (American Hoechst Corporation, priority 1980, dated 1983).
Counter-ions that a name gives are not always drawn. Like-named read-outs stand apart in the source and are kept apart here.

Columns and labels:
Format in all cases: in vivo
[1] = tested on: tetrabenazine-induced ptosis; assay: inhibition of tetrabenazine-induced ptosis in mice (antidepressant assay); details: Mus musculus, ip, read-out: ED50 (50% inhibition from the ptosis of tetrabenazine-induced depression)
From the text: Thus, for instance, the intraperitoneal dosages at which the following compounds (ED50) effect a 50% inhibition from the ptosis of tetrabenazine-induced depression in mice are:
It is to be noted and stressed at this point that the substitution of a benzyl in the 2- or ortho position of the phenyl ring, in the compounds of the invention, is critical to biological especially antidepressant, activity. Where the benzyl is substituted in the 3- or meta position or the 4- or para position, the corresponding compound is relatively ineffective as compared to the 2-substituted compounds of the invention. In this regard, reference is made to the following Table II which illustrates such criticality in the form of intraperitoneal dosages at which a series (A. B. and C.) of 2-, 3- and 4-substituted compounds effect a 50% inhibition from the ptosis of tetrabenazine-induced depression in mice: […]

[2] = tested on: supra maximal electro shock (SES); assay: protection from supra maximal electro shock (SES), anticonvulsant
Method: Compounds of the present invention are further useful as anticonvulsant agents for mammals, as determined by the method of Woodbury, L. A. and Davenport, V. D., in Arch, Int. Pharmacodynam, Vol. 92, (1952) at pages 97-107. For example, the intraperitoneal dose of 17.6 mg/kg of body weight of 1-methyl-4-[-(4,fluorophenyl)-2-tolyl]-1,2,3,6-tetrahydropyridine hydrobromide produces an 83% protection from the effect of supra maximal electro shock (SES). Intraperitoneal doses of other representative compounds of the invention and their ability to protect from the effect of SES is shown below in Table IV.

[3] = tested on: 2-phenyl-1,4-quinone induced writhing; assay: 2-phenyl-1,4-quinone induced writhing assay in mice (analgesia); details: for inhibition of writhing: 60 mg/kg p.o., comparison
Method: Compounds of the invention are also useful as analgesic agents due to their ability to alleviate pain in mammals. […] Exptl. Biol. Med., 95, 729 (1957)]. Thus, for example, a 50% inhibition in writhing is effected by the oral administration of 28.4 mg/kg of body weight of 4-acetoxy-1-methyl-4-(α-phenyl)-2-tolyl)piperidine hydrochloride. Other representative compounds of the invention and their respective ability to inhibit said writhing is shown below in Table III.

[4] = tested on: tetrabenazine-induced ptosis; assay: inhibition of tetrabenazine-induced ptosis in mice (antidepressant assay); details: 25 mg/kg intraperitoneal
toxicity of amphetamine = assay: Amphetamine Aggregation Toxicity Reversal Assay (tranquilizer); details: 20 mg/kg oral; against 15 mg/kg intraperitoneal amphetamine sulfate; aggregated mice, survival up to 3 hours
From the text: Compounds of the invention are still further useful as tranquilizers due to their ability to reverse toxicity of amphetamine as measured in the Amphetamine Aggregation Toxicity Reversal Assay [Chance, M. R. A., J. Pharmacol. Exper. Therap. 87, pp. 214-219 (1946) and Proctor, C. D., Putts, J. T., Lundy, R. O., and Greenfield, E. J., Arch. Int. Pharmacodynam. 163, (1), pp. 79-86 (1966)]. In our assay "aggregated mice" mean 5 mice/group placed in such a manner as to yield 20 cm^2 of floor space per mouse. Animals are aggregated immediately after injection with amphetamine sulfate and then checked for survival up to 3 hours. For example, under these conditions an oral dosage of 20 mg/kg of body weight of 1-[3-(4-fluorobenzoyl)propyl]-4-(α-phenyl-2-tolyl)piperidine effects a 60% protection against the intraperitoneal dose of 15 mg/kg of amphetamine sulfate.

[5] = intraperitoneal, mice, Table II (2-, 3- and 4-substituted series A, B, C)

In the case of Cl.c1ccc(Cc2ccccc2C2CCNCC2)cc1 [4-(α-phenyl-2-tolyl)piperidine hydrochloride], the ED50 [1, 5] was 1.7 mg/kg.
With CN1CCC(c2ccc(Cc3ccccc3)cc2)CC1.O=C(O)C(=O)O [1-methyl-4-(α-phenyl-4-tolyl)piperidine oxalate, reference compound] the ED50 [1, 5] was > 20 mg/kg.
In the case of ON1CCC(c2ccccc2Cc2ccccc2)CC1 [1-hydroxy-4-(α-phenyl-2-tolyl)piperidine], the ED50 ([1]; intraperitoneal, mice, Table I) was 3 mg/kg.
In the case of Cl.c1ccc(Cc2ccc(C3CCNCC3)cc2)cc1 [4-(α-phenyl-4-tolyl)piperidine hydrochloride, reference compound], the ED50 [1, 5] was > 20 mg/kg.
CN1CCC(O)(c2ccccc2Cc2ccc(F)cc2)CC1 [1-methyl-4-[α-(4-fluorophenyl)-2-tolyl]-4-piperidinol] was tested, and the ED50 [1] was 8.2 mg/kg and the “% SES Protection” value ([2]; 23.3 mg/kg intraperitoneal) was 50%.
For Br.CN1CC=C(c2ccccc2Cc2ccc(F)cc2)CC1 [4-[α-(4-fluorophenyl)-2-tolyl]-1-methyl-1,2,3,6-tetrahydropyridine hydrobromide], the ED50 [1] was 8 mg/kg and the “protection from the effect of supra maximal electro shock (SES)” value ([2]; 17.6 mg/kg intraperitoneal) was 83%.
In the case of C1=C(c2ccccc2Cc2ccccc2)CCNC1 [4-(α-phenyl-2-tolyl)-1,2,3,6-tetrahydropyridine], the ED50 [1] was 2.1 mg/kg and the “% Inhibition in Writhing” value ([3]; 7.8 mg/kg sc, mice) was 50%.
For Cl.OC1(c2ccccc2Cc2ccccc2)CCN(Cc2ccccc2)C1 (stereo not drawn) [1-benzyl-3-(α-phenyl-2-tolyl)-3-pyrrolidinol hydrochloride], the “% SES Protection” value ([2]; 50 mg/kg intraperitoneal) was 83%.
CN1CC=C(c2ccccc2Cc2ccccc2)CC1 [1-methyl-4-(α-phenyl-2-tolyl)-1,2,3,6-tetrahydropyridine] gave an ED50 [1] of 8.8 mg/kg.
With Cl.c1ccc(Cc2cccc(C3CCNCC3)c2)cc1 [4-(α-phenyl-3-tolyl)piperidine hydrochloride, reference compound] the ED50 [1, 5] was > 20 mg/kg.
CC(=O)Oc1ccccc1C(=O)O [aspirin, reference compound] gave an inhibition of writhing [3] of 34%.
With CN1CCC(OC(=O)c2ccccc2)(c2ccccc2Cc2ccccc2)CC1.Cl [4-benzoyloxy-1-methyl-4-(α-phenyl-2-tolyl)piperidine hydrochloride] the “% Inhibition in Writhing” value ([3]; 12.8 mg/kg sc, mice) was 50%.
For CC(=O)OC1(c2ccccc2Cc2ccccc2)CCN(C)CC1.Cl [4-acetoxy-1-methyl-4-(α-phenyl-2-tolyl)piperidine hydrochloride], the inhibition in writhing ([3]; 28.4 mg/kg oral, mice) was 50% and the “inhibition from the ptosis of tetrabenazine-induced depression” value [4] was 40%.
In the case of CN1CCC(c2ccccc2Cc2ccccc2)CC1.Cl [1-methyl-4-(α-phenyl-2-tolyl)piperidine hydrochloride], the ED50 [1, 5] was 2.5 mg/kg, the “% Inhibition in Writhing” value ([3]; 61.7 mg/kg po, mice) was 50% and the “% SES Protection” value ([2]; 50 mg/kg intraperitoneal) was 83%.
O=C(CCCN1CCC(c2ccccc2Cc2ccccc2)CC1)c1ccc(F)cc1 [1-[3-(4-fluorobenzoyl)propyl]-4-(α-phenyl-2-tolyl)piperidine] was tested, and the “protection against amphetamine sulfate toxicity” value (toxicity of amphetamine) was 60%.
With CCC(=O)O[C@](Cc1ccccc1)(c1ccccc1)[C@H](C)CN(C)C [propoxyphene hydrochloride, reference compound] the inhibition of writhing [3] was 50%.
In the case of Br.c1ccc(CCN2CCC(c3ccccc3Cc3ccccc3)CC2)cc1 [1-phenethyl-4-(α-phenyl-2-tolyl)piperidine hydrobromide], the “% SES Protection” value ([2]; 37.5 mg/kg intraperitoneal) was 50%.
With Br.COc1ccc(Cc2ccccc2C2=CCN(C)CC2)cc1 [1-methyl-4-[α-(4-methoxyphenyl)-2-tolyl]-1,2,3,6-tetrahydropyridine hydrobromide] the “% SES Protection” value ([2]; 25.6 mg/kg intraperitoneal) was 50%.
With CN1CC=C(c2cccc(Cc3ccccc3)c2)CC1 [1-methyl-4-(α-phenyl-3-tolyl)-1,2,3,6-tetrahydropyridine, reference compound] the ED50 [1] was > 50 mg/kg.
In the case of CN1CCC(c2cccc(Cc3ccccc3)c2)CC1.O=C(O)C(=O)O [1-methyl-4-(α-phenyl-3-tolyl)piperidine oxalate, reference compound], the ED50 [1, 5] was > 20 mg/kg.
CN1CC=C(c2ccc(Cc3ccccc3)cc2)CC1 [1-methyl-4-(α-phenyl-4-tolyl)-1,2,3,6-tetrahydropyridine, reference compound] was tested, and the ED50 [1] was > 50 mg/kg.
In the case of Cl.OC1(c2ccccc2Cc2ccccc2)CCNCC1 [4-(α-phenyl-2-tolyl)-4-piperidinol hydrochloride], the ED50 ([1]; intraperitoneal, mice, Table I) was 5.4 mg/kg.
For CN1CCC(O)(c2ccccc2Cc2ccccc2)CC1 [1-methyl-4-(α-phenyl-2-tolyl)-4-piperidinol], the ED50 [1] was 8 mg/kg, the “% Inhibition in Writhing” value ([3]; 50.0 mg/kg po, mice) was 41% and the “% SES Protection” value ([2]; 36 mg/kg intraperitoneal) was 50%.
In the case of CCC(=O)OC1(c2ccccc2Cc2ccccc2)CCN(C)CC1.Cl [1-methyl-4-(α-phenyl-2-tolyl)-4-propionyloxypiperidine hydrochloride], the “% Inhibition in Writhing” value ([3]; 8.9 mg/kg sc, mice) was 50% and the “% SES Protection” value ([2]; 50 mg/kg intraperitoneal) was 50%.
